Assay results taken from patent US20200354348A1, “SEMISYNTHETIC AURONES AND METHODS OF USE THEREOF” (University of Kentucky Research Foundation, priority 2018, published 2020).
Structures can show the parent of a compound that is named as a salt.

Legend:
[1] = test system: LS174T cells; assay: Proliferation inhibition assay, LS174T; type: cell-based; settings: for inhibition at 10 µM / inhibition at 1 µM / inhibition at 0.3 µM: Homo sapiens, LS174T; for inhibition at 0.3 µM: 300 nM
Method: (§1) Cell Culture. LS174T (colon cancer cells), PC-3 (prostate cancer cells), MCF-7 (beast) and A549 (lung) were cultured in the medium recommended by American Type Culture Collection at 37° C. with 5% CO2 atmosphere in a water jacketed incubator. Ovcar-8 and NCI/ADR-RES are gifts from Dr. Markos Leggas. Alpha-tubulin antibodies, TRITC-conjugated anti-rabbit antibody.
(§2) Proliferation inhibition assay. Cancer cells were seeded into 24-well plates at a density of 20,000 cells per well in 1 mL of culture medium and cultured overnight at 37° C. Compounds and the vehicle control DMSO were added to the cells. After 6 days, medium was removed and 100 μL of trypsin was added. Then the cells resuspended in pbs were counted by Vi-CELL XR 2.03 (Beckman Coulter, Inc. USA). The ratio R of the number of viable cells in the compound treatment group to the number of viable cells in DMSO treatment group was taken as relative growth, and the percentage growth inhibition was calculated as: (1−R)*100. For initial testing, compounds were added to the cells at a final concentration 10 μM. Active compounds at 10 μM would be tested at lower concentrations.

[2] = test system: PC-3 cells; assay: Proliferation inhibition assay, PC-3; type: cell-based
Method: as §1, §2

[3] = Homo sapiens, PC-3, 10 μM, Table 1
[4] = Homo sapiens, PC-3, 1 μM, Table 1
[5] = Homo sapiens, PC-3, 10 μM, Table 2
[6] = Homo sapiens, PC-3, 300 nM, Table 2
[7] = Homo sapiens, PC-3, 1 μM, Table 2

CN(C)c1ccc(/C=C2\Oc3cc(O)ccc3C2=O)c(Cl)c1 [Aurone 2e, (2Z)-2-[2-Chloro-4-(dimethylamino)benzylidene]-6-hydroxy-1-benzofuran-3(2H)-one]
melting point: > 220 °C

Cn1cc(/C=C2\Oc3cc(O)ccc3C2=O)c2ccccc21 [Aurone 3j]
inhibition at 10 µM ([1]; 10 μM, Table 1): 54 ± 15%
inhibition at 10 µM [2, 3]: 41 ± 25%

Cn1cc(/C=C2\Oc3cc(OCc4c(F)cccc4Cl)ccc3C2=O)c2ccccc21 [Aurone 4h, (2Z)-6-[(2-Chloro-6-fluorobenzyl)oxy]-2-[(1-methyl-1H-indol-3-yl)methylene]-1-benzofuran-3(2H)-one]
melting point: 225 to 227 °C

CCN(CC)c1ccc(/C=C2\Oc3cc(O)ccc3C2=O)c(OC)c1 [Aurone 2f, (2Z)-2-[4-(Diethylamino)-2-methoxybenzylidene]-6-hydroxy-1-benzofuran-3(2H)-one]
melting point: > 220 °C

COc1ccc2c(c1)c(/C=C1\Oc3cc(O)ccc3C1=O)cn2C [Aurone 3k]
inhibition at 1 µM ([1]; 1 μM, Table 1): 13 ± 2.4%
inhibition at 10 µM ([1]; 10 μM, Table 1): 63 ± 0.7%
inhibition at 1 µM [2, 4]: 17 ± 5.5%
inhibition at 10 µM [2, 3]: 35 ± 28%

COc1ccc2c(c1)c(/C=C1\Oc3c(ccc(OCc4c(Cl)cccc4Cl)c3C)C1=O)cn2C [Aurone 4m, (2Z)-6-[(2,6-Dichlorobenzyl)oxy]-2-[(5-methoxy-1-methyl-1H-indol-3-yl)methylene]-7-methyl-1-benzofuran-3(2H)-one]
melting point: 241 to 243 °C

O=C1/C(=C/c2nccc3ccccc23)Oc2cc(O)ccc21 [Aurone 3d]
inhibition at 1 µM ([1]; 1 μM, Table 1): 2.7 ± 6.4%
inhibition at 10 µM ([1]; 10 μM, Table 1): 79 ± 3.6%
inhibition at 10 µM [2, 3]: 88 ± 5.5%

COc1ccc2c(c1)c(/C=C1\Oc3cc(OCc4c(F)cccc4Cl)ccc3C1=O)cn2C [Aurone 4k]
inhibition at 10 µM ([1]; 10 μM, Table 2): 53 ± 8.9%
inhibition at 10 µM [2, 5]: 57 ± 18%

CCn1cc(/C=C2\Oc3cc(O)ccc3C2=O)c2cc(OC)ccc21 [Aurone 3l]
inhibition at 1 µM ([1]; 1 μM, Table 1): 4.5 ± 7.3%
inhibition at 10 µM ([1]; 10 μM, Table 1): 83 ± 1.2%
inhibition at 1 µM [2, 4]: 13 ± 9.5%
inhibition at 10 µM [2, 3]: 69 ± 16%

CCn1cc(/C=C2\Oc3cc(OCc4c(Cl)cccc4Cl)ccc3C2=O)c2ccccc21 [Aurone 4q]
inhibition at 0.3 µM ([1]; Table 2): 0%
inhibition at 1 µM ([1]; 1 μM, Table 2): 93 ± 2.5%
inhibition at 10 µM ([1]; 10 μM, Table 2): 96%
inhibition at 0.1 µM ([2]; Homo sapiens, PC-3, 100 nM, Table 2): 17 ± 6.8%
inhibition at 0.3 µM [2, 6]: 75 ± 7.7%
inhibition at 1 µM [2, 7]: 98 ± 1%
inhibition at 10 µM [2, 5]: 97 ± 0.6%

O=C1/C(=C/c2ccc3ccccc3n2)Oc2cc(O)ccc21 [Aurone 3e]
inhibition at 1 µM ([1]; 1 μM, Table 1): 7.7 ± 9.9%
inhibition at 10 µM ([1]; 10 μM, Table 1): 96 ± 0.9%
inhibition at 1 µM [2, 4]: 26 ± 8.6%
inhibition at 10 µM [2, 3]: 99 ± 0.2%

CCn1cc(/C=C2\Oc3cc(OCc4c(F)cccc4Cl)ccc3C2=O)c2ccccc21 [Aurone 4p, (2Z)-6-[(2-Chloro-6-fluorobenzyl)oxy]-2-[(1-ethyl-1H-indol-3-yl)methylene]-1-benzofuran-3(2H)-one]
melting point: 198 to 200 °C

Cn1cc(/C=C2\Oc3cc(OCc4ccccc4F)ccc3C2=O)c2ccccc21 [Aurone 4d, (2Z)-6-[(2-Fluorobenzyl)oxy]-2-[(1-methyl-1H-indol-3-yl)methylene]-1-benzofuran-3(2H)-one]
melting point: 241 to 243 °C

CN(C)c1ccc(/C=C2\Oc3cc(OCc4ccccc4Cl)ccc3C2=O)c(Cl)c1 [Aurone 4s, (2Z)-6-[(2-Chlorobenzyl)oxy]-2-[2-chloro-4-(dimethylamino)benzylidene]-1-benzofuran-3(2H)-one]
melting point: > 220 °C

CCN(CC)c1ccc(/C=C2\Oc3cc(OCc4cc(F)ccc4F)ccc3C2=O)c(OC)c1 [Aurone 4t, (2Z)-6-[(2,5-Difluorobenzyl)oxy]-2-[4-(diethylamino)-2-methoxybenzylidene]-1-benzofuran-3(2H)-one]
melting point: 184 to 186 °C

O=C1/C(=C/c2ccc(N3CCOCC3)cc2)Oc2cc(O)ccc21 [Aurone 2b]
inhibition at 10 µM ([1]; 10 μM, Table 1): 0%
inhibition at 10 µM [2, 3]: 7.8 ± 7.7%

O=C1/C(=C/c2ccnc3ccccc23)Oc2cc(O)ccc21 [Aurone 3h]
inhibition at 10 µM ([1]; 10 μM, Table 1): 34 ± 11%
inhibition at 1 µM [2, 4]: 16 ± 3.5%
inhibition at 10 µM [2, 3]: 63 ± 7.2%

O=C1/C(=C/c2ccc(N3CCOCC3)cc2)Oc2cc(O)ccc21 [Aurone 2b, (2Z)-6-Hydroxy-2-(4-morpholin-4-ylbenzylidene)-1-benzofuran-3(2H)-one]
melting point: > 220 °C

O=C1/C(=C/c2ccccn2)Oc2cc(O)ccc21 [Aurone 3a, (2Z)-6-Hydroxy-2-(pyridin-2-ylmethylene)-1-benzofuran-3(2H)-one]
melting point: 246 to 248 °C

Cn1cc(/C=C2\Oc3cc(OCc4c(F)cccc4F)ccc3C2=O)c2ccccc21 [Aurone 4f, (2Z)-6-[(2,6-Difluorobenzyl)oxy]-2-[(1-methyl-1H-indol-3-yl)methylene]-1-benzofuran-3(2H)-one]
melting point: > 220 °C

CN1CCN(c2ccc(/C=C3\Oc4cc(O)ccc4C3=O)cc2)CC1 (as salt: hydrochloride)
melting point: > 220 °C

O=C1/C(=C/c2ccc(N3CCSCC3)cc2)Oc2cc(O)ccc21 [Aurone 2d, (2Z)-6-Hydroxy-2-[(4-thiomorpholin-4-ylbenzylidene)]-1-benzofuran-3(2H)-one]
melting point: > 220 °C

O=C1/C(=C/c2cccnc2)Oc2cc(O)ccc21 [Aurone 3b]
inhibition at 10 µM ([1]; 10 μM, Table 1): 11 ± 3.6%
inhibition at 10 µM [2, 3]: 0%

Cc1c(O)ccc2c1O/C(=C\c1cn(C)c3ccccc13)C2=O [Aurone 3n, (2Z)-6-Hydroxy-7-methyl-2-[(1-methyl-1H-indol-3-yl)methylene]-1-benzofuran-3(2H)-one]
melting point: 293 to 295 °C

CCn1cc(/C=C2\Oc3cc(O)ccc3C2=O)c2cc(OC)ccc21 [Aurone 3l, (2Z)-2-[(1-Ethyl-5-methoxy-1H-indol-3-yl)methylene]-6-hydroxy-1-benzofuran-3(2H)-one]
melting point: 265 to 267 °C

CCn1cc(/C=C2\Oc3cc(OCc4c(Cl)cccc4Cl)ccc3C2=O)c2ccccc21 [Aurone 4q, (2Z)-6-[(2,6-Dichlorobenzyl)oxy]-2-[(1-ethyl-1H-indol-3-yl)methylene]-1-benzofuran-3(2H)-one]
melting point: 213 to 215 °C

COc1ccc2c(c1)c(/C=C1\Oc3cc(O)ccc3C1=O)cn2C [Aurone 3k, (2Z)-6-Hydroxy-2-[(5-methoxy-1-methyl-1H-indol-3-yl)methylene]-1-benzofuran-3(2H)-one]
melting point: 301 to 303 °C

COc1cccc2ccc(/C=C3\Oc4cc(O)ccc4C3=O)nc12 [Aurone 3g, (2Z)-6-Hydroxy-2-[(8-methoxyquinolin-2-yl)methylene]-1-benzofuran-3(2H)-one]
melting point: 250 to 252 °C

Cn1cc(/C=C2\Oc3cc(OCc4c(F)cccc4F)ccc3C2=O)c2ccccc21 [Aurone 4f]
inhibition at 10 µM ([1]; 10 μM, Table 2): 0.5 ± 1.7%
inhibition at 10 µM [2, 5]: 82 ± 4.3%

O=C1/C(=C/c2c[nH]c3ccccc23)Oc2cc(O)ccc21 [Aurone 3i]
inhibition at 10 µM ([1]; 10 μM, Table 1): 44 ± 8.6%
inhibition at 10 µM [2, 3]: 20 ± 6.8%

Cn1cc(/C=C2\Oc3cc(OCc4ccccc4F)ccc3C2=O)c2ccccc21 [Aurone 4d]
inhibition at 10 µM ([1]; 10 μM, Table 2): 7.1 ± 17%
inhibition at 10 µM [2, 5]: 0%

CCn1cc(/C=C2\Oc3cc(OCc4c(Cl)cccc4Cl)ccc3C2=O)c2cc(OC)ccc21 [Aurone 4o]
inhibition at 0.3 µM ([1]; Table 2): 3.3 ± 24%
inhibition at 1 µM ([1]; 1 μM, Table 2): 7.3 ± 18%
inhibition at 10 µM ([1]; 10 μM, Table 2): 94 ± 1.7%
inhibition at 0.3 µM [2, 6]: 3.9 ± 11%
inhibition at 1 µM [2, 7]: 67 ± 5.8%
inhibition at 10 µM [2, 5]: 96 ± 1.1%

Cn1cc(/C=C2\Oc3cc(OCc4c(F)cccc4Cl)ccc3C2=O)c2ccccc21 [Aurone 4h]
inhibition at 10 µM ([1]; 10 μM, Table 2): 38 ± 2%
inhibition at 1 µM [2, 7]: 0%
inhibition at 10 µM [2, 5]: 31 ± 40%

CCn1cc(/C=C2\Oc3cc(OCc4ccccc4F)ccc3C2=O)c2cc(OC)ccc21 [Aurone 4n]
inhibition at 1 µM ([1]; 1 μM, Table 2): 0%
inhibition at 10 µM ([1]; 10 μM, Table 2): 28 ± 11%
inhibition at 1 µM [2, 7]: 28 ± 15%
inhibition at 10 µM [2, 5]: 52 ± 23%

CCn1cc(/C=C2\Oc3cc(OCC#N)ccc3C2=O)c2cc(O)ccc21 [Aurone 4b]
Inhibition of LS174T Cells 1 μM ([1]; 1 μM, Table 2): 26 ± 15%
Inhibition of LS174T Cells 10 μM ([1]; 10 μM, Table 2): 83 ± 4.8%
Inhibition of PC-3 Cells 300 nM ([2]; 300 nM, Table 2): 24 ± 11%
Inhibition of PC-3 Cells 1 μM ([2]; 1 μM, Table 2): 96 ± 2%
Inhibition of PC-3 Cells 10 μM ([2]; 10 μM, Table 2): 96 ± 1.6%

O=C1/C(=C/c2ccccn2)Oc2cc(O)ccc21 [Aurone 3a]
inhibition at 10 µM ([1]; 10 μM, Table 1): 0%
inhibition at 10 µM [2, 3]: 8.8 ± 15%

COc1ccc2nc(/C=C3\Oc4cc(O)ccc4C3=O)ccc2c1 [Aurone 3f]
inhibition at 10 µM ([1]; 10 μM, Table 1): 6.1 ± 13%
inhibition at 10 µM [2, 3]: 8.4 ± 33%

Cn1cc(/C=C2\Oc3cc(OCc4ccccc4Cl)ccc3C2=O)c2ccccc21 [Aurone 4e]
inhibition at 10 µM ([1]; 10 μM, Table 2): 0%
inhibition at 10 µM [2, 5]: 20 ± 6.6%

O=C1/C(=C/c2ccc(N3CCCC3)cc2)Oc2cc(O)ccc21 [Aurone 2a]
inhibition at 1 µM ([1]; 1 μM, Table 1): 0%
inhibition at 10 µM ([1]; 10 μM, Table 1): 23 ± 2.9%
inhibition at 1 µM [2, 4]: 2.1 ± 7.1%
inhibition at 10 µM [2, 3]: 95 ± 4.7%

CCn1cc(/C=C2\Oc3cc(OCc4c(F)cccc4Cl)ccc3C2=O)c2ccccc21 [Aurone 4p]
inhibition at 1 µM ([1]; 1 μM, Table 2): 5.1 ± 19%
inhibition at 10 µM ([1]; 10 μM, Table 2): 93 ± 3.2%
inhibition at 0.3 µM [2, 6]: 44 ± 5.6%
inhibition at 1 µM [2, 7]: 91 ± 2.2%
inhibition at 10 µM [2, 5]: 95 ± 4.4%

COc1cccc2ccc(/C=C3\Oc4cc(O)ccc4C3=O)nc12 [Aurone 3g]
inhibition at 1 µM ([1]; 1 μM, Table 1): 20 ± 9.1%
inhibition at 10 µM ([1]; 10 μM, Table 1): 91 ± 2.4%
inhibition at 1 µM [2, 4]: 40 ± 8.4%
inhibition at 10 µM [2, 3]: 97 ± 0.8%
